Our source for the TGI and GI50 values is PubChem BioAssay (NCI).

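Results reflect a 48-hour exposure of cells in 96-well plates to compound at five concentrations. At the GI50, growth is halved. TGI denotes the concentration required for complete inhibition of growth.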

Test in all cases: NCI anticancer screen, dose series, 48 h
The test system of assay [1] is COLO 205 colon.
Assay [2] concerns OVCAR-3 ovarian.
Assay [3] relates to LOX IMVI melanoma.
Assay [4] has as its system 786-0 renal.
Assay [5] has as its system SNB-19 CNS.
Assay [6] concerns U251 CNS.
The test system of assay [7] is HOP-62 NSCLC.
For assay [8], the system named is RXF 393 renal.
The test system of assay [9] is M14 melanoma.

For `CC1(O)CCn2c(=O)c3cc4ccccc4cc3c(=O)n2C1O` (configuration not stated), the TGI in [1], in assay [2], in assay [3], in [4], in [5] and in [6] was greater than 100 µM throughout. Besides, the TGI in assay [7] and in assay [8] was greater than 100 µM each time.

For the molecule `COc1c(O)c(OC)c2oc(-c3ccc(O)cc3)c(OC)c(=O)c2c1O`, the TGI in assay [1] is greater than 100 µM; in assay [2], 74.9 µM; in [3] it was greater than 100 µM; in assay [4] it was 86.3 µM; in [5], greater than 100 µM; in assay [9], greater than 100 µM. For the same molecule, the TGI in assay [6] is greater than 100 µM; in assay [7], 94.9 µM.

With `Cc1nc(-c2cccnc2)sc1C(=O)/C=C/c1cccc([N+](=O)[O-])c1`, the TGI in [1], in assay [2], in assay [3], in [4], in assay [6] and in assay [7] was greater than 100 µM throughout. The TGI in assay [8] was greater than 100 µM.

With `C=CC1=C(C)C2=NC1=CC1=NC(=CC3=C(C)C4=C(O)[C@H](C(=O)OC)C(=C5NC(=C2)[C@@H](C)[C@@H]5CCC(=O)O)C4=N3)C(CC)=C1C`, the TGI was 11.8 µM in assay [1]; greater than 28.2 µM in assay [4]; greater than 100 µM in assay [5]; greater than 41.2 µM in assay [6]; greater than 33.5 µM in assay [7]; 9.1 µM in assay [8].

On to `c1ccc(-c2nc(N3CCCNCC3)c3nc(-c4ccccc4)oc3n2)cc1`, for which the GI50 in assay [1] was 1.6 µM; in assay [2], 1.75 µM; in assay [4] it was 1.73 µM; in assay [5], 1.71 µM; in [9] it was 1.79 µM; in assay [6] it was 1.74 µM. In addition, the GI50 was 1.58 µM in assay [7] and 1.66 µM in assay [8]. For the same molecule, the TGI was 3.38 µM in [1]; 3.21 µM in assay [2]; 3.45 µM in assay [4]; 3.34 µM in [5]; 3.4 µM in assay [9]; 3.31 µM in [6]. Besides, the results for the TGI in [7] and in [8] were 3.23 µM and 3.29 µM, respectively.

Take `CSc1ccc(N(C)c2nc(C)nc3c2CCC3)cc1`: the GI50 in assay [1], in assay [2], in assay [3], in assay [4], in assay [5] and in assay [6] was less than 0.01 µM in each case. The GI50 in assay [7] and in assay [8] was less than 0.01 µM each time. Besides, the TGI in assay [1] is less than 0.01 µM; in [2], less than 0.01 µM; in assay [3], 13.7 µM; in [4] it was 50 µM; in assay [5], greater than 100 µM; in [6], greater than 100 µM. Also, the figures for the TGI in assay [7] and in assay [8] were 21.3 µM and greater than 100 µM, respectively.

Take `CCOC(=O)N1CCN(CCCCCOc2ccccc2C2CCCCC2)CC1`: the GI50 in [1] is 2.32 µM; in assay [2] it was 8.29 µM; in assay [3], 2.85 µM; in assay [4] it was 1.86 µM; in assay [5], 10.7 µM; in [9], 2.98 µM. For the same molecule, the GI50 in assay [6] is 5.05 µM; in assay [7], 2.52 µM. For the same molecule, the TGI in assay [1] stood at 7.14 µM; in [2] it was 24.1 µM; in assay [3], 12.5 µM; in assay [4], 3.78 µM; in [5] it was 22.6 µM; in assay [9] it was 11 µM. In addition, the TGI in assay [6] was found to be 19 µM; in assay [7] it was 8.05 µM.

Consider `CN1c2ccccc2SC2C(c3ccccc3)=NOC21` (configuration not stated), for which the TGI in [1], in assay [2], in assay [4], in assay [5], in assay [9] and in assay [6] was greater than 100 µM each time. The TGI in assay [7] and in assay [8] was greater than 100 µM each time.

For `CCCCCCCCCCCCCC[n+]1cccc(C(N)=O)c1`, the GI50 in assay [1] was 1.29 µM; in assay [2], 1.93 µM; in [4], 1.32 µM; in assay [5], 1.01 µM; in [9], 1.58 µM; in assay [6], 0.652 µM. For the same molecule, in assay [7], the GI50 was 1.35 µM. The TGI in assay [1] turned out to be 2.72 µM; in assay [2], 5.02 µM; in [4], 2.82 µM; in assay [5] it was 2.4 µM; in [9], 3.6 µM; in assay [6], 2.11 µM. Further, in [7], the TGI was 3.41 µM.

Regarding `COc1ccc2c(NCCCCCCNc3c4ccccc4nc4cc(OC)ccc34)c3ccccc3nc2c1`, the TGI came to 0.189 µM in [1]; 1.76 µM in [2]; 1.3 µM in [4]; 3.75 µM in assay [5]; 1.23 µM in assay [9]; 1.47 µM in assay [6]. The results for the TGI in [7] and in assay [8] were 0.946 µM and 0.483 µM, respectively.

`Cc1c(C(=O)/C=C/c2ccccc2[N+](=O)[O-])[n+](=O)c2ccccc2n1[O-]`: the TGI is 13.7 µM in assay [1]; 13.3 µM in assay [2]; 17.8 µM in [4]; 33.4 µM in assay [5]; 23.1 µM in [9]; 28.5 µM in [6]. In assay [7], this molecule had a TGI of 32.2 µM.

Take `CC(C)(C)c1ccc(OC2CCO2)cc1` (configuration not stated): the TGI was 70.5 µM in assay [1]; greater than 100 µM in assay [2]; 63.3 µM in [4]; greater than 100 µM in [5]; greater than 100 µM in [9]; 35.3 µM in [6]. Besides, the TGI in [7] was greater than 100 µM.

As for `Cc1ccc(C)c(N2C(=O)C(=O)C(c3nc4ccccc4s3)C(=Nc3cccc4c(=O)[nH][nH]c(=O)c34)C2=O)c1` (configuration not stated), the TGI in assay [1], in assay [2], in [3], in assay [4], in [5] and in [9] was greater than 100 µM in each case. In addition, the TGI in [6] and in assay [7] was greater than 100 µM throughout.

In the case of `O=C1c2cccc3cccc(c23)C(=O)N1O`, the TGI in assay [1], in [2], in assay [3], in assay [4], in assay [5] and in assay [9] was greater than 100 µM each time. Also, the values for the TGI in assay [6] and in assay [8] were greater than 100 µM and 68.5 µM, respectively.
